Earlier results in patent publication US9199980B2, “Compounds” (CHIESI FARMACEUTICI S.p.A., priority 2012, dated 2015).

Tests used:
[1] = system: smoking model of COPD in mice
[2] = patients with severe disease, frequent exacerbations and mucus hypersecretion

O=C(Nc1c(Cl)cncc1Cl)c1ccc(OC(F)F)c(OCC2CC2)c1 [roflumilast]
effect on lung inflammation and emphysema [1]: inhibits lung inflammation and emphysema | reduction of the numbers of neutrophils in sputum (COPD patients; COPD patients, oral, given over 4 weeks): 36% | improvement of FEV 1 (COPD patients; [2]): approximately 50 ml | reduction of exacerbation (COPD patients; [2]): about 15%
